The source of these data is paper PMC3764026, “Adaptive Evolution of Escherichia coli to an α-Peptide/β-Peptoid Peptidomimetic Induces Stable Resistance” (PLoS ONE, 2013).

Assay [1] has as its system peptidomimetic-adapted E. coli isolates 2-7 and 7-3. The experiment in a line: Growth rate in MHB supplemented with peptidomimetic 1, adapted isolates. Type of assay: cell-based, Escherichia coli. Here is the method: To evaluate whether resistance altered the physiology of the isolates, we determined the growth rate of all forty isolates from lineage 2, 4, 5 and 7 as well as of E. coli ATCC 25922 in unsupplemented MHB media. Additionally, we determined the growth rate of the four isolates 2-7, 4-4, 5-6 and 7-3, in MHB supplemented with peptidomimetic 1 at ½×wild type MIC or 1×wild type MIC (i.e. 4 and 8 µg/mL). […] Optical density readings were obtained at 570 nm at 10–12 minute increments on cultures grown at 37°C over 24 hours (unsupplemented MHB) or 72 hours (supplemented MHB) using the automated Bioscreen C system (Labsystems, Helsinki, Finland). Growth rates were found using linear regression on ln(initial CFU/mL) vs. detection time (i.e. the time until a 0.5 unit increase in absorbance was reached) for inoculum sizes ranging from 10^2–10^7 CFU/mL [58]. Data were analysed in GraphPad Prism version 4.03 using One-Way ANOVA followed by Dunnett’s Test to correct for multiple testing. Control groups were E. coli ATCC 25922 (in the absence of peptidomimetic) or E. coli ATCC 25922/isolates grown in unsupplemented media (in the presence of peptidomimetic). Significance levels were in all tests set at p<0.05. All experiments were performed in duplicate on at least two independent days.

Assay [2] concerns Escherichia coli ATCC 25922. The experiment in a line: Continuous selection experiment. Type of assay: cell-based. The method, then: Continuous selection of resistance was performed for peptidomimetic 1 (Figure 1) and for the clinically relevant natural antimicrobial peptide, polymyxin B. A bacterial suspension of a single colony of E. coli ATCC 25922 was re-inoculated (10 µl) five times in unsupplemented MHB (990 µl). It was then re-inoculated in MHB supplemented with peptidomimetic 1 (ten lineages) or polymyxin B (ten lineages), and after ten re-inoculations at constant peptidomimetic or polymyxin B concentration, the concentrations were doubled. […] Four lineages grown in MHB with MilliQ water were included as control. Re-inoculations were performed twice a day, but were reduced to once a day when growth was slower as assessed by turbidity of the cultures. The total number of passages (supplemented with peptidomimetic/AMP) was 77 times equivalent to approx. 500 generations. For each increase in concentration the lineages were preserved as freezing stocks. Ten colony isolates were randomly selected from each lineage population at 32×MIC and preserved as freezing stocks.

The subject of assay [3] is Escherichia coli ATCC 25922. It counts as cell-based. The note with it: wild-type E. coli ATCC 25922; MHB pH 7.4, 5×10^5 CFU/mL, 37°C, 18–20 h. The method, then: All experiments were performed with Escherichia coli ATCC 25922. Stock cultures of the wild-type strain and lineage isolates were stored at –80°C in 4% (w/v) glycerol, 0.5% (w/v) glucose, 2% (w/v) skimmed milk powder and 3% (w/v) tryptone soy powder. Lineage populations were frozen at –80°C in 50% (w/v) glycerol. All experiments were performed at 37°C. Experiments were carried out in cation-adjusted Mueller Hinton II broth (MHB) (Becton Dickinson 212322) adjusted to pH 7.4 or in 1% (w/v) peptone (Becton Dickinson 211677) for MIC determination of natural AMPs. Brain Heart Infusion (BHI) (CM1135) with agar (VWR 20768.292) 1.5% as gelling agent was used throughout for colony plating.
MIC was determined by using the micro-dilution method according to guidelines of the Clinical and Laboratory Standards Institute. Peptidomimetic 1 and erythromycin 1∶2 serial dilutions were prepared from 1024 µg/mL stock solutions to give a final range of 512-0.5 µg/mL in the wells. Ampicillin 1∶2 serial dilutions were prepared from a 256 µg/mL stock solution to give a final range of 128-0.13 µg/mL in the wells. Polymyxin B and gentamicin 1∶2 serial dilutions were prepared from a 64 µg/mL stock solution to give a final range of 32-0.03 µg/mL in the wells. Also, 1∶2 serial dilutions of the AMPs KR-12, IsCTp, melittin and PEP-1-K were prepared from 64 µg/mL stock solutions to give a final range of 32-0.03 µg/mL in the wells; however this was performed in 1% peptone instead of in MHB since activity was drastically diminished in the latter (not shown).
The population lineages were tested for their susceptibility towards peptidomimetic 1, polymyxin B, gentamicin and ampicillin. Single-culture isolates selected from these populations were additionally tested against peptidomimetic 1, polymyxin B, erythromycin and the five reference AMPs. To estimate the level of cross-resistance to closely related peptidomimetics, MIC determinations were performed for peptidomimetics 2 and 3 (Figure 1) towards selected isolates. […]

Each structure is given as a SMILES string.

Turning to `CC(=O)N[C@@H](CCCCNC(=N)N)C(=O)N(CCC(=O)N[C@@H](CCCCNC(=N)N)C(=O)N(CCC(=O)N[C@@H](CCCCNC(=N)N)C(=O)N(CCC(=O)N[C@@H](CCCCNC(=N)N)C(=O)N(CCC(=O)N[C@@H](CCCCNC(=N)N)C(=O)N(CCC(=O)N[C@@H](CCCCNC(=N)N)C(=O)N(CCC(N)=O)[C@@H](C)c1ccccc1)[C@@H](C)c1ccccc1)[C@@H](C)c1ccccc1)[C@@H](C)c1ccccc1)[C@@H](C)c1ccccc1)[C@@H](C)c1ccccc1` [peptidomimetic 1], the growth rate result in assay [1] (isolate 2–7, MHB with 4 µg/mL peptidomimetic 1 (1/32×MIC), p<0.01 vs unsupplemented) is recorded as “significantly reduced growth rate”; in assay [1] (isolate 2–7, MHB with 8 µg/mL peptidomimetic 1 (1/16×isolate MIC), p<0.01 vs unsupplemented, Bioscreen C, 37°C, 72 h), “significantly reduced”; in assay [1] (isolate 7-3, MHB with 8 µg/mL peptidomimetic 1 (1/16×isolate MIC), p<0.05 vs unsupplemented, Bioscreen C, 37°C, 72 h), “significantly reduced”. Besides, the “lineages that eventually grew at 32×wt MIC” value in assay [2] (ten lineages per agent, from 1/16×wt MIC, doubled stepwise, 77 inoculations, approx. 500 generations, 32×wt MIC = 256 µg/mL peptidomimetic 1, 32 µg/mL polymyxin B) is “All ten”. Also, in assay [2] (two controls per agent, 32 µg/mL peptidomimetic 1 or 4 µg/mL polymyxin B), the “growth of unexposed control lineages at 4×wt MIC” value was “failed to grow”. Also, the “wt MIC” value in assay [3] is on record as 8 µg/mL.
